Data from patent publication US11260034B2, “Method of using niclosamide derivatives” (CHANG GUNG UNIVERSITY, priority 2016, dated 2022).

Assays:
[1] = tested on: washed platelet samples, platelet aggregation induced by collagen; experiment: platelet aggregation test, washed platelets stimulated with collagen (light transmission); assay type: cell-based; conditions: for collagen-induced platelet aggregation: FIG. 8; for aggregation percentage: FIG. 9
Protocol: FIG. 1 is a diagram illustrating a platelet aggregation test, in accordance with at least one embodiment of the present invention. In FIG. 1, N and C represent the administrations of niclosamide in 0.25% dimethyl sulfoxide (DMSO) or collagen respectively. The platelet aggregation test was performed in accordance with the standard procedure. Four washed platelet samples from the same source were treated with the same volume of niclosamide (0.5 μM, 1 μM, and 2 μM) or a solvent control respectively. Five minutes later, each washed platelet sample was treated with collagen (2 μM) to induce platelet aggregation. FIG. 1 illustrates the light transmission rates of each result. In FIG. 1, the X-axis represents time and the Y-axis represents the transmittance. Note that in FIG. 1, the four platelet aggregation tests performed simultaneously are presented sequentially on the X-axis to render the data readable for one skilled in the art. […] The platelet aggregation test was performed in accordance with the standard procedure. Four washed platelet samples from the same source were treated with the same volume of niclosamide (0.5 μM, 1 μM, and 2 μM) or a solvent control respectively. Five minutes, each washed platelet sample was treated with 2 μM collagen to induce platelet aggregation. The results were detected twenty minutes after the administration of collagen. In FIG. 2, the Y-axis represents the percentage of platelet aggregation, in which the transmittance of platelet-poor plasma is set as 100%. FIG. 8 is a diagram illustrating a platelet aggregation test, in accordance with at least one embodiment of the present invention. Four washed platelet samples from the same source were treated with different treatments at the same time. In FIG. 8, “D” represents the administration of 0.25% DMSO; “C” represents the administration of collagen; “N” represents the administration of niclosamide in 0.25% DMSO; and “S” represents the administration of a STAT-3 inhibitor, STA-21. […] Four washed platelet samples from the same source were treated with different treatments at the same time. In FIG. 9, “D” represents 0.25% DMSO; “STA-21” represents the STAT-3 inhibitor, STA-21; “Niclosamide” represents the niclosamide in 0.25% DMSO; and “Collagen” represents the stimulant, collagen.

pSYK and PLCγ2 = experiment: western blot of proteins in the signal transduction pathway of platelet aggregation; assay type: cell-based; conditions: FIG. 3; 2 μM niclosamide pretreatment, 2.5 μM collagen
Protocol: FIG. 3 is a western blot image showing proteins in the signal transduction pathway of platelet aggregation, in accordance with at least one embodiment of the present invention. In FIG. 3, pSYK and PLCγ2 in the signal transduction pathway are suppressed in the washed platelet sample received 2 μM niclosamide, even that is treated with 2.5 μM collagen to induce platelet aggregation. In contrast, the pSYK and PLCγ2 in the washed platelet sample received a solvent control (0.25% DMSO) pretreatment are successfully activated after the 2.5 μM collagen treatment.

[2] = tested on: washed platelet sample, clot formation induced by collagen; experiment: optical microscope images of platelet aggregation test; assay type: cell-based; conditions: FIG. 4C; 2 μM niclosamide and 2.5 μM collagen
Protocol: FIGS. 4A-4C are optical microscope images of a platelet aggregation test, in accordance with at least one embodiment of the present invention. The platelet aggregation test was performed in accordance with the standard procedure on three washed platelet samples from the same source at the same time. […] In FIG. 4C, the washed platelet sample 10 received 2 μM niclosamide and 2.5 μM collagen; In FIG. 4B, the washed platelet sample 10 received 2.5 μM collagen and 0.25% DMSO with the same volume of the niclosamide in FIG. 4C. Note that 0.25% DMSO is the solvent of the niclosamide in FIG. 4C. […] In FIG. 4B, clots 20 formed as a result of the treatment of collagen and DMSO.

[3] = tested on: washed platelet samples, platelet aggregation induced by podoplanin; experiment: platelet aggregation test, washed platelets stimulated with podoplanin; assay type: cell-based; conditions: FIG. 6; niclosamide 0.5 μM, 1 μM or 2 μM vs solvent control; 0.4 μM podoplanin; read 20 min after podoplanin
Protocol: FIG. 6 is a bar chart representing the quantitative results of a platelet aggregation test, in accordance with at least one embodiment of the present invention. All procedures in FIG. 6 are the same as the procedures in FIG. 2, except that the collagen used to stimulate platelet aggregation in FIG. 2 is substituted by podoplanin in FIG. 6. In this embodiment, four washed platelet samples from the same source were treated with the same volume of niclosamide (0.5 μM, 1 μM, and 2 μM) or a solvent control respectively. Five minutes, each washed platelet sample was treated with 0.4 μM podoplanin to induce platelet aggregation. The results were detected twenty minutes after the administration of podoplanin. In FIG. 6, the Y-axis represents the percentage of platelet aggregation, in which the transmittance of platelet-poor plasma is used as 100%.

mice [4] = experiment: ferric chloride occlusive thrombosis of mesenteric arteries; assay type: in vivo; conditions: FIG. 11; mice 8-10 weeks; 20 mg/kg injected into the abdomen; 7.5% FeCl3 on mesenteric arteries for 2 min; DMSO control 5 minutes
Protocol: FIG. 11 is diagram illustrating the occlusion time, in accordance with at least one embodiment of the present invention. Mice at 8-10 weeks of age were used in FIG. 11. About 20 nM 3,3′-Dihexyloxacarbocyanine iodide (DioC6), a fluorescent dye used for the staining of platelets, was injected into the orbital vein after 20 mg/kg niclosamide or 5% DMSO was injected into the abdomen. An hour later, isoflurane was provided based on the body weight to anesthetize the mice. Followed the standard procedure for studying occlusive thrombosis, Whatman #1 filter papers soaked with 7.5% ferric chloride (FeCl3) were attached to the mesenteric arteries for two minutes. The mesenteric arteries were then immersed in isotonic saline and placed under a fluorescence microscope (Macrofluo, objective 5.0/0.5 NA, Leica Micro-systems) to record the occlusion time and cessation of blood flow.

[5] = Int J Risk Saf Med 20 (2008) 113-122; cited from earlier work
mice [6] = experiment: tail bleeding assay; assay type: in vivo; conditions: FIG. 10; mice 8-10 weeks; 20 mg/kg injected into the abdomen, 1 h before; distal 3-mm tail segment amputated; DMSO control 5 minutes
Protocol: FIG. 10 is diagram illustrating the bleeding time results, in accordance with at least one embodiment of the present invention. Mice at 8-10 weeks of age were used in FIG. 10. Isoflurane was provided based on the body weight to anesthetize the mice one hour after the 20 mg/kg niclosamide or 5% DMSO was injected into the abdomen. Followed the standard procedure of tail bleeding assay, the distal 3-mm segment of the tail was amputated with scalpel after the anesthetization. The tails were than immersed in isotonic saline at 37° C. to observe the bleeding time. […] However, the bleeding time for mice treated with niclosamide was extended to around 15 minutes.

Row | SMILES | collagen-induced platelet aggregation ([1]; pretreated with 1.25 μM STA-21, 2 μM collagen) | aggregation percentage ([1]; 1.25 μM STA-21 and 2 μM collagen (DMSO control exceeds 60%)) | pSYK and PLCγ2 in the signal transduction pathway (pSYK and PLCγ2) | platelet aggregation induced by collagen (transmittance over time) ([1]; FIG. 1, niclosamide 0.5 μM, 1 μM, 2 μM given 5 min before collagen 2 μM) | percentage of platelet aggregation ([1]; FIG. 2, niclosamide 0.5 μM, 1 μM or 2 μM vs solvent control, 2 μM collagen, read 20 min after collagen, p<0.01) | collagen-induced platelet aggregation ([1]; pretreated with 0.25 μM niclosamide, 2 μM collagen) | aggregation percentage ([1]; 0.25 μM niclosamide and 2 μM collagen (DMSO control exceeds 60%)) | IC50 relative to STA-21 ([1]; FIGS. 8 and 9, collagen-induced platelet aggregation) | platelet aggregation / clots under 20× optical microscope [2] | percentage of platelet aggregation [3] | occlusion time (mice [4]) | safety profile under current conditions of use [5] | bleeding time (mice [6])
1 | C[C@@H]1CC(=O)c2c(ccc3c2C(=O)c2cccc(O)c2C3=O)C1 [STA-21, ochromycinone] | suppressed | less than 40% |  |  |  |  |  |  |  |  |  |  | 
2 | O=C(Nc1ccc([N+](=O)[O-])cc1Cl)c1cc(Cl)ccc1O [niclosamide, 5-chloro-N-(2-chloro-4-nitrophenyl)-2-hydroxybenzamide] |  |  | suppressed | suppresses the platelet aggregation induced by collagen in a dose-dependent manner | significantly reduced | suppressed | less than 30% | lower IC50 compared to STA-21 | No platelet aggregation is observed | significantly reduced | around 25 minutes | there is no information to suggest an unfavorable safety profile of the drug under current conditions of use | around 15 minutes
